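Each compound was tested at five concentrations against cells in 96-well plates for 48 hours. The concentration for 50% growth inhibition is given as GI50. TGI denotes the concentration required for complete inhibition of growth.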

One experiment concerns HCT-15 colon. The experiment in a line: NCI anticancer screen, dose series, 48 h.
Turning to `c1ccc(SC2CCSc3ccccc3C2Sc2ccccc2)cc1` (stereo not given), the TGI was above 100 µM.
Same read-out and setting: then `COC(=O)[C@]1(C)CCCC2(C)C1CC[C@H]1C=C(C)[C@H]3CCC12C3` (stereo not given in full), with above 100 µM.
Same read-out and setting: the figure for `O=C(Nc1cc(Cl)ccc1Cl)c1cc2cccc(Cl)c2oc1=O` is above 100 µM; for `Cc1ccc(Cn2c(C)nc3c2C(=O)c2ccccc2C3=O)cc1` it is 60 µM.
As for `CC(C)=CCc1cc(O)cc2c1OC(C=C(C)C)C1=C2C(=O)C2=C(NCCS2(=O)=O)C1=O` (stereo not given), the GI50 is 2.74 µM and the TGI turned out to be 6.46 µM.
As for `Cc1c(Cl)cccc1N1C(=O)C(Cl)=C(Cl)C1=O`, the TGI was above 100 µM.
As to `COc1cccc(/C=N/[N-]C(=O)c2ccncc2)c1[O-].[Cu+2].[OH3+]`, the GI50 is 62.8 µM and the TGI is above 100 µM.
In turn, `O=C1NC(=S)NNC12c1ccccc1-c1ccccc12` came in with a TGI above 10 µM.
`COc1c(OC)c(OC)c(C(=O)/C=C/c2ccccc2)c(OC)c1OC` had a TGI of 23 µM.
Still for that read-out and setting: the figure for `COc1ccc(C(O)c2nccn2C)c(OC)c1` (stereo not given) is above 100 µM.
In the case of `NS(=O)(=O)c1ccc(N(/C=C/C(=O)C(F)(F)F)CC(=O)c2ccc(Cl)cc2)cc1`, the GI50 was 35.5 µM and the TGI is above 100 µM.
`C1CSCCSCCS1` showed a TGI above 100 µM.
As for `Cc1cn2c(/C=C3\C(=O)Nc4ccc(O)cc43)c(-c3ccc(Cl)cc3)nc2s1`, the GI50 was 21.4 µM and the TGI was above 100 µM.
With `CC1=CC(=O)[C@@H](O)[C@]2(C)[C@H]3[C@@]4(O)OC[C@]35[C@H]([C@@H](C)[C@H]4O)[C@@H](O)C(=O)O[C@@H]5C[C@@H]12`, the TGI is 2.48 µM.
Still for that read-out and setting: then `O=C(NC(=O)c1cn(CCNCCO)c(=O)[nH]c1=O)OCc1ccccc1`, with above 100 µM.
The same measure, in the same setting: the figure for `CCSc1[nH]c(Nc2nc(-c3ccccc3)n(-c3ccccc3)n2)c(C(N)=O)c1C(N)=O` is above 10 µM; for `CCC1C2C=CC(CC2)N1S(=O)(=O)c1ccc(C)cc1` (stereo not given) it is 73.5 µM.
On to `COc1ccc2[nH]cc(-c3nc(-c4c[nH]c5ncccc45)cs3)c2c1`, for which the GI50 is 2.61 µM and the TGI was above 100 µM.
On to `O=C(N/N=C1/C(=O)N(c2ccc(Cl)cc2Cl)C(=O)C(=O)C1c1nc2ccccc2o1)c1ccccc1O` (stereo not given), for which the TGI is above 100 µM.
In turn, `O=c1cc(-c2ccccc2)[nH]c2c(S)cccc12` registered a TGI above 100 µM.
Compound `CC(=O)O[C@H]1CCC2[C@@H]3CCC4=C(O)c5nocc5C[C@]4(C)C3CC[C@@]21C` (stereo not given in full) returned a TGI above 100 µM.
On to `O=C1[C@@H]2C3c4ccccc4C([C@@H]2C(=O)N1c1ccccc1)S3(=O)=O`, for which the TGI is above 100 µM.
For the compound `COc1ccccc1N1CCN(CCCn2c(=O)c3c(OC)nc(C)cc3c(=O)n2-c2ccccc2)CC1`, the GI50 was above 100 µM and the TGI is above 100 µM.
In turn, `Cc1ccc(-c2nc3ccc([N+](=O)[O-])cc3[nH]2)cc1` had a TGI above 100 µM.

The next experiment has as its system ACHN renal. The experiment in a line: NCI anticancer screen, dose series, 48 h.
Regarding `c1ccc(SC2CCSc3ccccc3C2Sc2ccccc2)cc1` (stereo not given), the TGI is above 100 µM.
Turning to `COC(=O)[C@]1(C)CCCC2(C)C1CC[C@H]1C=C(C)[C@H]3CCC12C3` (stereo not given in full), the TGI is above 100 µM.
On the same count and under the same terms, then `O=C(Nc1cc(Cl)ccc1Cl)c1cc2cccc(Cl)c2oc1=O`, with above 100 µM; and `Cc1ccc(Cn2c(C)nc3c2C(=O)c2ccccc2C3=O)cc1`, with 38.9 µM.
`CC(C)=CCc1cc(O)cc2c1OC(C=C(C)C)C1=C2C(=O)C2=C(NCCS2(=O)=O)C1=O` (stereo not given): the GI50 is 3.18 µM and the TGI was 10.6 µM.
For `Cc1c(Cl)cccc1N1C(=O)C(Cl)=C(Cl)C1=O`, the TGI is above 100 µM.
As to `COc1cccc(/C=N/[N-]C(=O)c2ccncc2)c1[O-].[Cu+2].[OH3+]`, the GI50 was 90.8 µM and the TGI is above 100 µM.
As for `COc1c(OC)c(OC)c(C(=O)/C=C/c2ccccc2)c(OC)c1OC`, the TGI was determined as 28.9 µM.
The same measure, in the same setting: then `COc1ccc(C(O)c2nccn2C)c(OC)c1` (stereo not given), with above 100 µM.
With `NS(=O)(=O)c1ccc(N(/C=C/C(=O)C(F)(F)F)CC(=O)c2ccc(Cl)cc2)cc1`, the GI50 is 30.4 µM and the TGI came out at 91.4 µM.
The matching figures for `Cc1cn2c(/C=C3\C(=O)Nc4ccc(O)cc43)c(-c3ccc(Cl)cc3)nc2s1`: 17.8 µM and above 100 µM.
`CC1=CC(=O)[C@@H](O)[C@]2(C)[C@H]3[C@@]4(O)OC[C@]35[C@H]([C@@H](C)[C@H]4O)[C@@H](O)C(=O)O[C@@H]5C[C@@H]12` showed a TGI of 5.4 µM.
Still for that read-out and setting: the figure for `O=C(NC(=O)c1cn(CCNCCO)c(=O)[nH]c1=O)OCc1ccccc1` is above 100 µM; for `CCC1C2C=CC(CC2)N1S(=O)(=O)c1ccc(C)cc1` (stereo not given) it is above 100 µM.
As for `COc1ccc2[nH]cc(-c3nc(-c4c[nH]c5ncccc45)cs3)c2c1`, the GI50 was 2.85 µM and the TGI was above 100 µM.
As for `O=C(N/N=C1/C(=O)N(c2ccc(Cl)cc2Cl)C(=O)C(=O)C1c1nc2ccccc2o1)c1ccccc1O` (stereo not given), the TGI is above 100 µM.
For `O=c1cc(-c2ccccc2)[nH]c2c(S)cccc12`, the TGI was above 100 µM.
For `CC(=O)O[C@H]1CCC2[C@@H]3CCC4=C(O)c5nocc5C[C@]4(C)C3CC[C@@]21C` (stereo not given in full), the TGI is above 100 µM.
The same measure, in the same setting: the figure for `O=C1[C@@H]2C3c4ccccc4C([C@@H]2C(=O)N1c1ccccc1)S3(=O)=O` is above 100 µM; for `COc1ccc(/C(=N\NC(=O)C(N)=O)C(c2ccc(OC)cc2)C2(O)C(=O)Nc3c(Cl)cccc32)cc1` (stereo not given) it is above 100 µM.
`COc1ccccc1N1CCN(CCCn2c(=O)c3c(OC)nc(C)cc3c(=O)n2-c2ccccc2)CC1`: the GI50 is above 100 µM and the TGI is above 100 µM.
As to `Cc1ccc(-c2nc3ccc([N+](=O)[O-])cc3[nH]2)cc1`, the TGI was above 100 µM.

The test system of another experiment is HCT-116 colon. As to the kind of experiment: NCI anticancer screen, dose series, 48 h.
In the case of `c1ccc(SC2CCSc3ccccc3C2Sc2ccccc2)cc1` (stereo not given), the TGI is above 100 µM.
Turning to `COC(=O)[C@]1(C)CCCC2(C)C1CC[C@H]1C=C(C)[C@H]3CCC12C3` (stereo not given in full), the TGI was above 100 µM.
`O=C(Nc1cc(Cl)ccc1Cl)c1cc2cccc(Cl)c2oc1=O` gave a TGI above 100 µM.
On the same count and under the same terms, the figure for `Cc1ccc(Cn2c(C)nc3c2C(=O)c2ccccc2C3=O)cc1` is 16.3 µM.
As to `CC(C)=CCc1cc(O)cc2c1OC(C=C(C)C)C1=C2C(=O)C2=C(NCCS2(=O)=O)C1=O` (stereo not given), the GI50 is 611 nM and the TGI came to 2.45 µM.
Regarding `Cc1c(Cl)cccc1N1C(=O)C(Cl)=C(Cl)C1=O`, the TGI was above 100 µM.

The values above are taken from PubChem BioAssay (NCI).
